In patent US20240067657A1, “AMIDO-SUBSTITUTED PYRIDYL COMPOUNDS AND METHODS OF USE THEREOF FOR THE TREATMENT OF HERPESVIRUSES” (Merck Sharp & Dohme LLC, priority 2020, published 2024):
Where two headings read alike, the source gives them in different places.

Tests used:
[1] = target: T1, Human cytomegalovirus DNA polymerase (Human cytomegalovirus, UniProt P08546); test: HCMV polymerase assay (AlphaLISA, IC50); format: biochemical; details: polymerase assay of Example 190
T1 construct: made in house; host or cells: SF21 insect cells (baculovirus vector)
T1 sequence (P08546 whole entry): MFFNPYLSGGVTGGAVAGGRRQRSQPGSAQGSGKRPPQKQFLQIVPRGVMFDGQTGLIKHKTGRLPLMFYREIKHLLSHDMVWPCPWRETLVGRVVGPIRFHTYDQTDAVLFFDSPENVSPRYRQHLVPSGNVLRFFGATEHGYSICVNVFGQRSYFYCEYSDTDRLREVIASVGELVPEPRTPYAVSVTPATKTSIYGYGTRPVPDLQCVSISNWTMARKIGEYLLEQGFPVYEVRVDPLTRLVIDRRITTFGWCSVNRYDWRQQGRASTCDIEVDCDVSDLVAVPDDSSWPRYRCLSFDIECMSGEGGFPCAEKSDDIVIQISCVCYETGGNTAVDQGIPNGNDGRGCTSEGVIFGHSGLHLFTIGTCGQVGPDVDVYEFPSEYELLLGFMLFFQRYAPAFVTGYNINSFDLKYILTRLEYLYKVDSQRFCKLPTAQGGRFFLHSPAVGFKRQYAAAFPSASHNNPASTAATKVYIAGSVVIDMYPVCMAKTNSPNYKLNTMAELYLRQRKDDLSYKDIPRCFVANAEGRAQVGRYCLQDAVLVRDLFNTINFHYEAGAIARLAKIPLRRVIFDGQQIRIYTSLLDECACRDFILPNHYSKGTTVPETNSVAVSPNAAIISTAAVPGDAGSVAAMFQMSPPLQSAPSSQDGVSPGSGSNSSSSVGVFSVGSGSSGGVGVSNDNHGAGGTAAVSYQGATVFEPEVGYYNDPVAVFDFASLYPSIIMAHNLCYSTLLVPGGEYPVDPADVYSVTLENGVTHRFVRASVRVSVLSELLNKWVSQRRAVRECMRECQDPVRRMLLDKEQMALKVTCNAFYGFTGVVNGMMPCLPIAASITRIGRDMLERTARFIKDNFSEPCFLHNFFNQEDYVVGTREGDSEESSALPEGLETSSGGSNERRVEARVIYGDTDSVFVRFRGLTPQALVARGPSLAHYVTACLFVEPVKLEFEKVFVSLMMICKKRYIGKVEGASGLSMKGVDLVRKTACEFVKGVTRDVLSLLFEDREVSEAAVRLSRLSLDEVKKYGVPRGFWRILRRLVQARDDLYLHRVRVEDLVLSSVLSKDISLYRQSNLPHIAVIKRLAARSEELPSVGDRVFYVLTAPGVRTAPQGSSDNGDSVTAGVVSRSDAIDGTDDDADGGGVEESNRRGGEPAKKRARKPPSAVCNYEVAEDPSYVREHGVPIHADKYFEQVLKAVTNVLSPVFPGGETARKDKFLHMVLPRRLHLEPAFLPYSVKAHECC
Outline: (§1)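 Baculovirus-expressed polymerase (HCMV 0.2 nM, VZV 0.4 nM final) preincubated 30 min at room temperature with compound in pH 7.5 HEPES buffer; reaction started with 1.6 nM DIG-primer/template and nM dNTPs including biotin-dUTP, run 60 min at 37° C. Incorporation detected by AlphaLISA; IC50 from 4-parameter fit.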

[2] = target: T2, varicella zoster virus DNA polymerase (Varicella-zoster virus, UniProt P09252); test: VZV polymerase assay (AlphaLISA, IC50); format: biochemical; details: polymerase assay of Example 190
T2 construct: made in house; host or cells: SF21 insect cells (baculovirus vector)
T2 sequence (P09252 whole entry): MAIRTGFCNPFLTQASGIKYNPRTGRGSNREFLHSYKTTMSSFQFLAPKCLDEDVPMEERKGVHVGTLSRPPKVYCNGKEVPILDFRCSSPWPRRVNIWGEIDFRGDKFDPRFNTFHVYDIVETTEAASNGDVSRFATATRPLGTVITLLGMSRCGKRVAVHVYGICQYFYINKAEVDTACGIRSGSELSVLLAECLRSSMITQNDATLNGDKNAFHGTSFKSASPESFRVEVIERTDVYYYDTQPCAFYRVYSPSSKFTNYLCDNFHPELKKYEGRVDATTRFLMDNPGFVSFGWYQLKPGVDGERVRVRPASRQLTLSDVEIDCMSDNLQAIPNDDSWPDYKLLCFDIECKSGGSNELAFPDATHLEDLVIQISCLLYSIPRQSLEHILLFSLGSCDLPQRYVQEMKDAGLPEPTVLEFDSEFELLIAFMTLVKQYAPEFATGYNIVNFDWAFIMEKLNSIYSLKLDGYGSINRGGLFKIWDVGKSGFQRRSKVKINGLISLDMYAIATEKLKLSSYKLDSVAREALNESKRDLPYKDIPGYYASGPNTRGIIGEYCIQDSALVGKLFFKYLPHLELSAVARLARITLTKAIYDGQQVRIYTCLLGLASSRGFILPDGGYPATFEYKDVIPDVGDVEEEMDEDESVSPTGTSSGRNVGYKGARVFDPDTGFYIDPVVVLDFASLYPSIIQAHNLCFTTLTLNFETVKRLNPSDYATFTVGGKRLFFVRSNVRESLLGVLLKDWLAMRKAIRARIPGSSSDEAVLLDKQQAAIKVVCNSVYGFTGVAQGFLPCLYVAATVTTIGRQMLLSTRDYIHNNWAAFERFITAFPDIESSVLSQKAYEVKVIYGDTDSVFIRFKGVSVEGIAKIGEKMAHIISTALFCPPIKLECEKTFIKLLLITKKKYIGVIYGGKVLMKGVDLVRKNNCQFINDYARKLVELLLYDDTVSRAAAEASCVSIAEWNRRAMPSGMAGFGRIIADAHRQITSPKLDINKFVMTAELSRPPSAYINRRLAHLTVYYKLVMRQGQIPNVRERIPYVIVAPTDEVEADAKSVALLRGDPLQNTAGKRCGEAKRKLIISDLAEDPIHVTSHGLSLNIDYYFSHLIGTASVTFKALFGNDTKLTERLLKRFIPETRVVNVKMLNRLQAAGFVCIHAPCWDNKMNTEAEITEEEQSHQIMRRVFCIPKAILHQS
Outline: as §1

[3] = tested on: HCMV Strain AD169 in MRC-5 cells; test: Viral qPCR assay HCMV (V0/V1, V2/V3), EC50; format: cell-based
Outline: (§2)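 Infected cells added to compounds (10-point 3-fold series), ~72 h at 37 °C, then lysed; viral genomes by TaqMan qPCR against plasmid standard, normalized to PPIA in V0/V1 only, EC50 from 4-parameter fit. HCMV AD169, 0.05-0.1 pfu/cell, ± 50% FBS; VZV 0.04-0.1 pfu/cell; HSV-1 F 0.0005-0.004 pfu/cell.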

[4] = tested on: VZV in MeWo or MRC5 cells; test: Viral qPCR assay VZV (V0/V1, V2/V3), EC50; format: cell-based
Outline: as §2

[5] = tested on: HSV-1 Strain F in Vero or MRC5 cells; test: Viral qPCR assay HSV-1 (V0/V1, V2/V3), EC50; format: cell-based
Outline: as §2

[6] = Human betaherpesvirus 5, AD169, MRC5, viral qPCR assay of Example 191, read-out: HCMV Cell (EC50)
[7] = Human alphaherpesvirus 3, MRC5, MRC5 cells, 10%, read-out: VZV Cell (EC50) MRC5 10%
[8] = Human alphaherpesvirus 3, MeWo, MEWO cells, 10%, read-out: VZV Cell (EC50) MEWO 10%
[9] = Human alphaherpesvirus 1, MRC5, MRC5 cells, 10%, read-out: HSV1 Cell (EC50) MRC5 10%
[10] = Human alphaherpesvirus 1, Vero, VERO cells, 10%, read-out: HSV1 Cell (EC50) VERO 10%

| Compound | IC50 [1] | IC50 [2] | EC50 [3, 6] | EC50 [4, 7] | EC50 [4, 8] | EC50 [5, 9] | EC50 [5, 10] | EC50 ([3]; Human betaherpesvirus 5, AD169, MRC5, read-out: HCMV Cell (EC50)) | EC50 ([4]; Human alphaherpesvirus 3, MeWo, read-out: VZV Cell (EC50) MEWO 10%) | EC50 ([5]; Human alphaherpesvirus 1, Vero, read-out: HSV1 Cell (EC50) VERO 10%) |
| --- | --- | --- | --- | --- | --- | --- | --- | --- | --- | --- |
| Cn1cc(-c2cnc(C(=O)NCc3ccc(Cl)c(F)c3)cc2O[C@H]2CCN3C(=O)OC[C@@H]3C2)cn1 [Compound 96] | 0.00546 µM | 0.00336 µM | 0.0863 µM | 0.132 µM | 0.0536 µM | 0.071 µM | 0.119 µM |  |  |  |
| Cn1cc(-c2cnc(C(=O)NCc3ccc(Cl)cc3F)cc2O[C@H]2CCN3C(=O)OC[C@@H]3C2)cn1 [Compound 97] | 0.014 µM | 0.0157 µM | 0.101 µM |  | 0.0955 µM |  | 0.191 µM |  |  |  |
| Cc1cnn(-c2cnc(C(=O)NCc3ccc(Cl)cc3)cc2O[C@H]2CCN3C(=O)OC[C@@H]3C2)c1 [Compound 105] | 0.223 µM | 0.139 µM | 1.3 µM |  | 0.87 µM |  | 0.655 µM |  |  |  |
| Cc1ccn(-c2cnc(C(=O)NCc3ccc(Cl)cc3)cc2O[C@H]2CCN3C(=O)OC[C@@H]3C2)n1 [Compound 106] | 0.224 µM | 0.197 µM | 0.923 µM |  | 0.288 µM |  | 0.575 µM |  |  |  |
| COC(C)(C)Cc1cnc(C(=O)NCc2ccc(Cl)cc2)cc1O[C@H]1CCN2C(=O)OC[C@@H]2C1 [Compound 107] | 0.024 µM | 0.00307 µM | 0.549 µM | 0.582 µM |  | 0.473 µM |  |  |  |  |
| O=C(NCc1ccc(Cl)cc1)c1cc(O[C@H]2CCN3C(=O)OC[C@@H]3C2)c(C2CC(F)(F)C2)cn1 [Compound 108] | 0.0451 µM | 0.0264 µM | 0.844 µM | 1.62 µM |  | 0.646 µM |  |  |  |  |
| COC1CC(c2cnc(C(=O)NCc3ccc(Cl)cc3)cc2O[C@H]2CCN3C(=O)OC[C@@H]3C2)C1 (some centres unmarked) [Compound 110] | 0.022 µM | 0.00484 µM | 0.354 µM | 1.52 µM |  | 0.998 µM |  |  |  |  |
| CC(C)(O)Cc1cnc(C(=O)NCc2ccc(Cl)cc2)cc1O[C@H]1CCN2C(=O)OC[C@@H]2C1 [Compound 111] | 0.0136 µM | 0.0138 µM | 0.396 µM | 1.16 µM |  | 1.12 µM | 0.719 µM |  |  |  |
| O=C(NCc1ccc(Cl)cc1)c1cc(O[C@H]2CCN3C(=O)OC[C@@H]3C2)c(CCO)cn1 [Compound 112] | 0.0544 µM | 0.0311 µM | 0.635 µM |  | 0.482 µM |  | 3.25 µM |  |  |  |
| O=C(NCc1ccc(Cl)cc1)c1cc(O[C@H]2CCN3C(=O)OC[C@@H]3C2)c(CCn2cccn2)cn1 [Compound 115] | 0.173 µM | 0.132 µM | 1.72 µM |  | 0.9 µM |  | 1.28 µM |  |  |  |
| COC1CN(c2cnc(C(=O)NCc3ccc(Cl)cc3)cc2O[C@H]2CCN3C(=O)OC[C@@H]3C2)C1 [Compound 120] | 0.0162 µM | 0.0026 µM | 0.21 µM | 0.441 µM |  | 0.434 µM |  |  |  |  |
| O=C(NCc1ccc(Cl)cc1)c1cc(O[C@H]2CCN3C(=O)OC[C@@H]3C2)c(N2CC(O)C2)cn1 [Compound 122] | 0.0192 µM | 0.00904 µM | 0.121 µM | 0.582 µM |  | 0.52 µM |  |  |  |  |
| O=C(NCc1ccc(Cl)cc1)c1cc(O[C@H]2CCN3C(=O)OC[C@@H]3C2)c(N2CC(F)C2)cn1 [Compound 125] | 0.0377 µM | 0.02 µM | 0.198 µM | 0.72 µM |  | 0.531 µM |  |  |  |  |
| O=C(NCc1ccc(Cl)cc1)c1cc(O[C@H]2CCN3C(=O)OC[C@@H]3C2)c(OCC(F)(F)F)cn1 [Compound 126] | 0.0258 µM | 0.0166 µM | 0.572 µM | 1.46 µM | 0.488 µM | 1.97 µM | 0.154 µM |  |  |  |
| N#Cc1cnc(C(=O)NCc2ccc(Cl)cc2)cc1O[C@H]1CCN2C(=O)OC[C@@H]2C1 [Compound 127] | 0.03 µM | 0.0283 µM | 0.349 µM | 1.11 µM | 0.239 µM | 0.8 µM | 0.234 µM |  |  |  |
| COc1cnc(C(=O)NCc2ccc(Cl)cc2)cc1O[C@H]1CCN2C(=O)OC[C@@H]2C1 [Compound 129] | 0.054 µM | 0.018 µM |  |  |  |  |  | 0.546 µM | 0.278 µM | 0.339 µM |
| Cc1c[n+]([O-])c(C(=O)NCc2ccc(Cl)cc2)cc1O[C@H]1CCN2C(=O)OC[C@@H]2C1 [Compound 130] | 0.0891 µM | 0.0434 µM | 0.557 µM |  | 0.252 µM |  | 0.496 µM |  |  |  |

| Compound | IC50 [1] | IC50 [2] | EC50 [3, 6] | EC50 [4, 7] | EC50 [4, 8] | EC50 [5, 9] | EC50 [5, 10] | EC50 ([3]; Human betaherpesvirus 5, AD169, MRC5, read-out: HCMV Cell (EC50)) | EC50 ([4]; Human alphaherpesvirus 3, MeWo, read-out: VZV Cell (EC50) MEWO 10%) | EC50 ([5]; Human alphaherpesvirus 1, Vero, read-out: HSV1 Cell (EC50) VERO 10%) |
| --- | --- | --- | --- | --- | --- | --- | --- | --- | --- | --- |
| CC(C)n1cc(-c2c[n+]([O-])c(C(=O)NCc3ccc(Cl)cc3)cc2O[C@H]2CCN3C(=O)OC[C@@H]3C2)cn1 [Compound 131] | 0.0118 µM | 0.011 µM | 0.0985 µM |  | 0.158 µM |  | 0.268 µM |  |  |  |
| CC(=O)N1CCC(Oc2cc(C(=O)NCc3ccc(Cl)cc3)[n+]([O-])cc2-c2cnn(C(F)F)c2)CC1 [Compound 132] | 0.161 µM | 0.0403 µM | 1.32 µM |  | 0.51 µM |  | 0.401 µM |  |  |  |
| O=C(NCc1ccc(Cl)cc1)c1cc(O[C@H]2CCN3C(=O)OC[C@@H]3C2)c(CN2CCC(O)CC2)cn1 [Compound 135] | 0.09 µM | 0.0411 µM | 0.634 µM |  | 0.344 µM |  | 9.21 µM |  |  |  |
| CN(CCCO)Cc1cnc(C(=O)NCc2ccc(Cl)cc2)cc1O[C@H]1CCN2C(=O)OC[C@@H]2C1 [Compound 136] | 0.214 µM | 0.152 µM | 0.989 µM |  | 0.386 µM |  | 9.26 µM |  |  |  |
| O=C(NCc1ccc(Cl)cc1)c1cc(O[C@H]2CCN3C(=O)OC[C@@H]3C2)c(CN2CCCOCC2)cn1 [Compound 138] | 0.0658 µM | 0.0137 µM | 0.296 µM |  | 0.198 µM |  | 0.419 µM |  |  |  |
| O=C(NCc1ccc(Cl)cc1)c1cc(O[C@H]2CCN3C(=O)OC[C@@H]3C2)c(CN2CCSCC2)cn1 [Compound 139] | 0.033 µM | 0.0133 µM | 0.417 µM | 1.18 µM |  |  | 0.545 µM |  |  |  |
| O=C(NCc1ccc(Cl)cc1)c1cc(O[C@H]2CCN3C(=O)OC[C@@H]3C2)c(CNC2CC2)cn1 [Compound 141] | 0.0775 µM | 0.0448 µM | 0.554 µM | 2.21 µM |  |  | 0.287 µM |  |  |  |
| CN(Cc1cnc(C(=O)NCc2ccc(Cl)cc2)cc1O[C@H]1CCN2C(=O)OC[C@@H]2C1)[C@H]1CCOC1 [Compound 143] | 0.0148 µM | 0.0134 µM | 0.253 µM | 1.27 µM |  |  | 0.471 µM |  |  |  |
| CSc1cnc(C(=O)NCc2ccc(Cl)cc2)cc1O[C@H]1CCN2C(=O)OC[C@@H]2C1 [Compound 147a] | 0.019 µM | 0.0234 µM | 0.245 µM | 0.623 µM |  | 0.414 µM |  |  |  |  |
| O=C(NCc1ccc(Cl)cc1)c1cc(O[C@H]2CCN3C(=O)OC[C@@H]3C2)c(-c2cnc(C(F)F)o2)cn1 [Compound 148] | 0.00253 µM | 0.00447 µM | 0.163 µM | 0.229 µM |  | 0.129 µM |  |  |  |  |
| CCc1noc(-c2cnc(C(=O)NCc3ccc(Cl)cc3)cc2O[C@H]2CCN3C(=O)OC[C@@H]3C2)n1 [Compound 149] | 0.0164 µM | 0.00631 µM | 0.124 µM | 0.269 µM |  | 0.125 µM |  |  |  |  |
| Cc1cc(-c2cnc(C(=O)NCc3ccc(Cl)cc3)cc2O[C@H]2CCN3C(=O)OC[C@@H]3C2)on1 [Compound 150] | 0.00776 µM | ≤ 0.000444 µM | 0.11 µM | 0.144 µM |  | 0.0782 µM |  |  |  |  |
| CS(=O)(=O)N1CCC(Oc2cc(C(=O)NCc3ccc(Cl)cc3)ncc2Cl)CC1 [Compound 151] | 0.238 µM | 0.232 µM | 5.34 µM |  | 1.41 µM |  | 1.03 µM |  |  |  |
| O=C(NCc1ccc(Cl)cc1)c1cc(O[C@H]2CCN3C(=O)OC[C@@H]3C2)c(C2CC2O)cn1 (some centres unmarked) [Compound 154] | 0.0367 µM | 0.0114 µM | 0.255 µM | 0.896 µM |  | 0.662 µM |  |  |  |  |
| O=C(NCc1ccc(Cl)cc1)c1cc(O[C@H]2CCN3C(=O)OC[C@@H]3C2)c(/C=C/CO)cn1 [Compound 155] | 0.00737 µM | 0.00471 µM | 0.204 µM | 0.251 µM |  | 0.243 µM | 0.419 µM |  |  |  |
| COC/C=C/c1cnc(C(=O)NCc2ccc(Cl)cc2)cc1O[C@H]1CCN2C(=O)OC[C@@H]2C1 [Compound 155b] | 0.0085 µM | 0.00956 µM | 0.38 µM | 0.395 µM |  | 0.263 µM | 0.209 µM |  |  |  |
| Cn1cc(-c2cnc(C(=O)NCc3ccc(Cl)cc3)cc2OC2CCN3C(=O)OCC3(C)C2)cn1 (centres unmarked) [Compound 159] | 0.0592 µM | 0.0193 µM | 0.441 µM |  | 0.277 µM |  | 0.329 µM |  |  |  |
